# Test: Study HDP-CDV-201: safety and tolerability (adverse events, laboratory abnormalities, discontinuations)
# Format: in vivo, human (adult allogeneic HSCT recipients)
# Description: Clinical Studies of HDP-CDV were performed and described in detail in the following Examples. For example, HDP-CDV-201 is a placebo-controlled, dose-escalating trial in HSCT CMV (R+) recipients, evaluating the ability of HDP-CDV to prevent or control CMV infection was carried out. Five cohorts were established in which participants or subjects received either placebo or the HDP-CDV orally, in doses ranging from 40 mg weekly (QW) to 200 mg twice weekly (BIW). Subjects who were post-HSCT were enrolled at the time of engraftment and randomized to HDP-CDV or placebo (3 to 1 ratio) and received blinded therapy until approximately 100 day post-transplantation. HDP-CDV doses were 40 mg QW, 100 mg QW, 200 mg QW, 200 mg BIW and 100 mg BIW. Escalation to the next dose was decided by the data monitoring committee after review of the safety data from the previous Cohort. Subjects who developed CMV disease or CMV infection requiring pre-emptive therapy with local standard of care were discontinued from blinded therapy and followed for 4 weeks. Subjects who completed treatment with blinded therapy were followed for 8 weeks post-therapy.
# Data from Study HDP-CDV-201 also provided characterization of the safety and tolerability profile of HDP-CDV when administered for the prevention or control of CMV infection in high risk (R^+) post-HSCT adult subjects.
# The Safety population (SAFETY) included all randomized subjects who took at least one dose of study treatment. This population was used to summarize safety outcomes based on the treatment actually received, in cases where a subject was treated contrary to the randomization schedule.
# The safety and tolerability profile of HDP-CDV, including subject demographics and Baseline characteristics; the AE profile; and laboratory abnormalities of interest were analyzed in the cohorts followed in this investigation.
# Subjects completing the treatment period received a full course of study medication; those completing the entire study attended visits through 8 weeks of follow up. Subjects who discontinued treatment may have done so for protocol specified reasons (e.g. development of clinically significant CMV infection requiring preemptive treatment with excluded anti-CMV medications) or for other reasons (e.g., withdrawal, adverse events, loss to follow-up). The disposition of subjects in Study HDP-CDV-201 during the double-blind, placebo-controlled treatment period (through Week 11) is listed by dosing Cohort in TABLE 23.
# Adverse events were examined by severity to ensure that all safety signals were identified in this study population. Because of the frequency of events in HSCT recipients, particular attention was given to evaluation of Grade 3 […], 4 (severe), and 5 (fatal) adverse events.
# Only those preferred terms for which at least one Grade 3 or higher event was experienced in any treatment group are listed. Cytomegalovirus-related AEs are excluded from this analysis.
# HDP-CDV is a lipid conjugate of CDV. Because CDV is known to have adverse effects on renal function and bone marrow, decreased GFR and persistent neutropenia were identified as AEs of special interest. Key renal and hematological (TABLE 30) laboratory parameters were measured and listed below by Study HDP-CDV-201 treatment groups. TABLE 30 includes abnormal levels of serum creatinine, neutrophils, platelets, WBCs, and hemoglobin and includes data at Screening and during the treatment period.
# A common metric for unit based dosing of medications is by weight (mg/kg). When the distribution of weights was examined for all subjects participating in the study, the median was 78 kg and the lower 25th percentile weight was approximately 65 kg, which translates to a cut-off of ˜3 mg/kg for a 200 mg total weekly dose. Based upon this approach, a cut-off of 3 mg/kg was used to assess the frequency of diarrhea and associated GI AEs reported for the subjects in Cohorts 3 or 4a (TABLE 40).
# [1] = Cohort 2, 100 mg QW, through Week 11
smiles,measurement,setting,value
CCCCCCCCCCCCCCCCOCCCOP(=O)(O)COC(CO)Cn1ccc(N)nc1=O (centres unmarked) [HDP-CDV],"Total Bilirubin (any time during therapy) >1.5-3 × ULN, subjects","Cohort 2, 100 mg QW",1 (3.7%)
same,"Total Bilirubin (any time during therapy) >3-10 × ULN, subjects","Cohort 2, 100 mg QW",0
same,"Total Bilirubin (any time during therapy) >10 × ULN, subjects","Cohort 2, 100 mg QW",0
same,Abdominal pain leading to study drug withdrawal,"Cohort 2, 100 mg QW, N = 27",0%
same,All AEs leading to withdrawal,"Cohort 2, 100 mg QW, N = 27",9 (33.3%)
same,Diarrhoea leading to study drug withdrawal,"Cohort 2, 100 mg QW, N = 27",0%
same,Dyspepsia leading to study drug withdrawal,"Cohort 2, 100 mg QW, N = 27",0%
same,Nausea leading to study drug withdrawal,"Cohort 2, 100 mg QW, N = 27",0%
same,TEAE ALT increased,"Cohort 2, 100 mg QW, N = 27",1 (3.7%) n (%)
same,TEAE AST increased,"Cohort 2, 100 mg QW, N = 27",1 (3.7%) n (%)
same,TEAE Abdominal pain,"Cohort 2, 100 mg QW, N = 27",2 (7.4%) n (%)
same,"TEAE Abdominal pain, Upper","Cohort 2, 100 mg QW, N = 27",2 (7.4%) n (%)
same,TEAE Acute GVHD,"Cohort 2, 100 mg QW, N = 27",7 (25.5%) n (%)
same,TEAE Acute Myeloid Leukemia recurrent,"Cohort 2, 100 mg QW, N = 27",0 n (%)
same,TEAE Acute Renal Failure,"Cohort 2, 100 mg QW, N = 27",0 n (%)
same,TEAE Anxiety,"Cohort 2, 100 mg QW, N = 27",3 (11.1%) n (%)
same,TEAE Arthralgias,"Cohort 2, 100 mg QW, N = 27",3 (11.1%) n (%)
same,TEAE Back Pain,"Cohort 2, 100 mg QW, N = 27",2 (7.4%) n (%)
same,TEAE Blood lactate dehydrogenase increased,"Cohort 2, 100 mg QW, N = 27",1 (3.7%) n (%)
same,TEAE Creatinine increased,"Cohort 2, 100 mg QW, N = 27",5 (18.5%) n (%)
same,TEAE Cytomegalovirus viremia,"Cohort 2, 100 mg QW, N = 27",4 (14.8%) n (%)
same,TEAE Decreased appetite,"Cohort 2, 100 mg QW, N = 27",5 (18.5%) n (%)
same,TEAE Diarrhoea,"Cohort 2, 100 mg QW, N = 27",8 (29.6%) n (%)
same,TEAE Dysgeusia,"Cohort 2, 100 mg QW, N = 27",1 (3.7%) n (%)
same,TEAE Fatigue,"Cohort 2, 100 mg QW, N = 27",3 (11.1%) n (%)
same,TEAE GI Reflux Disease,"Cohort 2, 100 mg QW, N = 27",4 (14.8%) n (%)
same,TEAE Gamma-glutamyltransferase increased,"Cohort 2, 100 mg QW, N = 27",1 (3.7%) n (%)
same,TEAE Generalized oedema,"Cohort 2, 100 mg QW, N = 27",0 n (%)
same,TEAE Hyperbilirubinaemia,"Cohort 2, 100 mg QW, N = 27",0 n (%)
same,TEAE Hyperglycaemia,"Cohort 2, 100 mg QW, N = 27",1 (3.7%) n (%)
same,TEAE Hyperkalemia,"Cohort 2, 100 mg QW, N = 27",1 (3.7%) n (%)
same,TEAE Hypocalcaemia,"Cohort 2, 100 mg QW, N = 27",0 n (%)
same,TEAE Hypokalaemia,"Cohort 2, 100 mg QW, N = 27",2 (7.4%) n (%)
same,TEAE Hyponatraemia,"Cohort 2, 100 mg QW, N = 27",1 (3.7%) n (%)
same,TEAE Increased leukocytosis,"Cohort 2, 100 mg QW, N = 27",0 n (%)
same,TEAE Insomnia,"Cohort 2, 100 mg QW, N = 27",2 (7.4%) n (%)
same,TEAE Liver function test abnormal,"Cohort 2, 100 mg QW, N = 27",1 (3.7%) n (%)
same,TEAE Malnutrition,"Cohort 2, 100 mg QW, N = 27",0 n (%)
same,TEAE Nausea,"Cohort 2, 100 mg QW, N = 27",5 (18.5%) n (%)
same,TEAE Neutropenia,"Cohort 2, 100 mg QW, N = 27",4 (14.8%) n (%)
same,TEAE Oedema peripheral,"Cohort 2, 100 mg QW, N = 27",5 (18.5%) n (%)
same,TEAE Oral Candidiasis,"Cohort 2, 100 mg QW, N = 27",0 n (%)
same,TEAE Pneumonia,"Cohort 2, 100 mg QW, N = 27",2 (7.4%) n (%)
same,TEAE Pyrexia,"Cohort 2, 100 mg QW, N = 27",1 (3.7%) n (%)
same,TEAE Recurrent flatulence,"Cohort 2, 100 mg QW, N = 27",1 (3.7%) n (%)
same,TEAE Renal Failure,"Cohort 2, 100 mg QW, N = 27",2 (7.4%) n (%)
same,TEAE Staphylococcal Bacteremia,"Cohort 2, 100 mg QW, N = 27",1 (3.7%) n (%)
same,TEAE Thrombocytopenia,"Cohort 2, 100 mg QW, N = 27",3 (11.1%) n (%)
same,TEAE Tremor,"Cohort 2, 100 mg QW, N = 27",3 (11.1%) n (%)
same,TEAE Vomiting,"Cohort 2, 100 mg QW, N = 27",6 (22.2%) n (%)
same,Vomiting leading to study drug withdrawal,"Cohort 2, 100 mg QW, N = 27",1 (3.7%)
same,"All AEs, Grade 5 (deaths)","Cohort 2, 100 mg QW, N = 27, entire study duration",0%
same,Proportion of Subjects with Grade 3 Diarrhea,"Cohort 2, 100 mg QW, no Grade 4 or 5 diarrhea in any Cohort",0%
same,Subjects completed treatment,[1],18 (66.7%) n (%)
same,Subjects who permanently discontinued treatment,[1],9 (33.3%) n (%)
same,"Grade of hepatobiliary AE acute liver injury, subject 3007",Cohort 3,3

# Source: patent publication US20140303092A1 (CHIMERIX, INC., priority 2011, published 2014)
